From US20260098008A1, “COVALENT, CHEMOGENETIC ACTIVATORS FOR K2P POTASSIUM CHANNELS AND USES THEREOF” (THE REGENTS OF THE UNIVERSITY OF CALIFORNIA, priority 2022, published 2026)
Substitutions are numbered along the chain they refer to.

Tests used:
Format in all cases: cell-based
A286F K2P2.1 (TREK-1) = target: T1, A286F K2P2.1 (TREK-1) (Mus musculus, UniProt P97438, A301F); experiment: TEVC in Xenopus oocytes, attenuated channels; conditions: 20 μM; sequential addition of ML335, CAT335, BL-1249; 0 mV
T1 construct: expressed in transfected cells; host or cells: Xenopus laevis oocytes injected with mRNA
T1 sequence (P97438 1-411 isoform P97438-2 A286F): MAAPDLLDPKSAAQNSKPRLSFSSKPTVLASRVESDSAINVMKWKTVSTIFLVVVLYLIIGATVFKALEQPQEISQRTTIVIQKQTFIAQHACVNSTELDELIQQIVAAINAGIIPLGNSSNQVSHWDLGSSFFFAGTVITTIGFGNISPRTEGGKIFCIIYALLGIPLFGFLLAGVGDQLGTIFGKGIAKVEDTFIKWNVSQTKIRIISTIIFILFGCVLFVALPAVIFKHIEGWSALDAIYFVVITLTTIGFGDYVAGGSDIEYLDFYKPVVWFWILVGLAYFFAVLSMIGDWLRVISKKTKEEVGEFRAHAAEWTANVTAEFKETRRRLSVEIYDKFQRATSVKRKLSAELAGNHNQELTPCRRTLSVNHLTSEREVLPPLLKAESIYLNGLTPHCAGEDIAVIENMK
Excerpt: (§1) Mouse K2P2.1 (TREK-1) (Genbank accession number: NP_034737.2), mouse K2P10.1 (TREK-2) (NM_001316665.1), mouse K2P4.1 (TRAAK) (NM_008431.3), human K2P4.1 (TRAAK) (NM_033310.2) and mouse K2P18.1(TRESK) (NM_207261.3) were used for this study. Point mutations were introduced by site-directed mutagenesis using custom primers and confirmed by sequencing before use. For studies using Xenopus oocytes, K2P channels were subcloned into a previously reported pGEMHE/pMO vector (46). For expression in HEK293 cells, mouse K2P2.1 (TREK-1) and mutants were expressed from a previously described pIRES2-EGFP vector in HEK293 cells (46,47). K2P2.1 (TREK-1) tandems were constructed by connecting the open reading frames for the individual subunits with a linker encoding the […] (SEQ ID NO: 19) sequence. Tandems used for HEK293 cells included an N-terminal HA tag ([…] (SEQ ID NO: 20)) on the first subunit.
(§2) Xenopus laevis oocytes were harvested according to UCSF IACUC Protocol AN129690 and digested using collagenase (Worthington Biochemical Corporation, #LS004183, 0.8-1.0 mg/mL) in Ca^21-free ND96 (96 mM NaCl, 2 mM KCl, 3.8 mM MgCl2, 5 mM HEPES pH 7.4) immediately post-harvest, as previously reported (31,33). Oocytes were maintained at 18° C. in ND96 (96 mM NaCl, 2 mM KCl, 1.8 mM CaCl2, 2 mM MgCl2, 5 mM HEPES pH 7.4) supplemented with antibiotics (100 units mL^−1 penicillin, 100 μg mL^−1 streptomycin, 50 μg mL^−1 gentimycin) and used for experiments within one week of harvest.
(§3) Defolliculated stage V-VI oocytes were microinjected with 0.5-36 ng mRNA and currents were recorded within 16-48 h hours of injection.
(§4) For recordings, oocytes were impaled with borosilicate recording microelectrodes (0.4-2.0 MΩ resistance) backfilled with 3 M KCl and were subjected to constant perfusion of ND96 at a rate of 3 ml min^−1. Recording solutions containing K2P activators were prepared immediately prior to use from DMSO stocks (20-100 mM), with final DMSO concentrations of 0.1%. Currents were evoked from a −80 mV holding potential followed by a 300 ms ramp from −150 mV to +50 mV. Data were recorded using a GeneClamp 500B amplifier (MDS Analytical Technologies) controlled by pCLAMP8 software (Molecular Devices), and digitized at 1 kHz using Digidata 1332 Å digitizer (MDS Analytical Technologies). For each recording, control solution (ND96) was perfused over a single oocyte until current was stable before switching to solutions containing the test compounds at various concentrations. Representative traces and dose response plots were generated in GraphPad Prism 9.

G171F K2P2.1 (TREK-1) = target: T2, G171F K2P2.1 (TREK-1) (Mus musculus, UniProt P97438, G186F); experiment: TEVC in Xenopus oocytes, attenuated channels; conditions: 20 μM; sequential addition of ML335, CAT335, BL-1249; 0 mV
T2 construct: expressed in transfected cells; host or cells: Xenopus laevis oocytes injected with mRNA
T2 sequence (P97438 1-411 isoform P97438-2 G171F): T1 sequence (P97438 1-411 isoform P97438-2 A286F) with G171F, F286A
Excerpt: as §1, §2, §3, §4

[1] = target: T3, WT-WT tandem K2P2.1 (TREK-1) (Mus musculus, UniProt P97438); experiment: TEVC in Xenopus oocytes, tandem channels; conditions: 20 μM, sequential application
T3 construct: expressed in transfected cells; host or cells: Xenopus laevis oocytes injected with mRNA
T3 sequence (P97438 1-411 isoform P97438-2) 1: T1 sequence (P97438 1-411 isoform P97438-2 A286F) with F286A
T3 sequence (P97438 1-411 isoform P97438-2) 2: T1 sequence (P97438 1-411 isoform P97438-2 A286F) with F286A
Excerpt: as §1, §2, §3, §4

Row | Fold-activation (I activator/I control) (A286F K2P2.1 (TREK-1)) | Fold-activation (I activator/I control) (G171F K2P2.1 (TREK-1)) | Fold-activation (I activator/I control) [1] [fold] | SMILES
1 | 19.4±1.3 fold | 3.8±0.5 fold |  | c1ccc(-c2nn[nH]n2)c(Nc2cccc3c2CCCC3)c1 [BL-1249, reference compound]
2 | 1-1.8 fold | 1-1.8 fold | 6.8 ± 0.5 | CS(=O)(=O)Nc1ccc(C(=O)NCc2ccc(Cl)cc2Cl)cc1 [ML335, reference compound]
3 | insensitive | insensitive | 1.37 ± 0.07 | O=C(NCc1ccc(Cl)cc1Cl)c1ccc(N2C(=O)C=CC2=O)cc1 [CAT335]
